Patent US20010049374A1 (priority 1997, published 2001)
Where two headings read alike, the source gives them in different places.

Target: T1, urokinase enzyme Abbokinase (Homo sapiens, UniProt P00749)
T1 construct: purchased Abbott Laboratories, Abbott Park, Ill
Assay: Determination of urokinase inhibition (Abbokinase, chromogenic substrate S-2444)
Assay type: biochemical
Conditions: substrate S-2444 at 200 μM, enzyme 2-3 nM, pH 7.4, 405 nm

[1] = Inhibitory potency against urokinase, read-out: IC50
[2] = IC50, Inhibitory potency against urokinase

Procedure: Several vials were reconstituted as directed on the vial, aliquoted and stored frozen. The enzyme was further diluted in assay buffer and 10 μl was used in the assay. Enzyme concentration in the assay was 2-3 nM. […] The Spectromax® calculated the reaction rates which were used to calculate percent inhibition of the compounds of this invention versus the reaction rate of the enzyme in the absence of any inhibitor. The Ki's of the inhibitors were calculated from the percent inhibition and previously established Km.

Row | IC50 [2] | Compound | IC50 [1]
1 | – | N=C(N)c1ccc2cc(C#CCNC(=O)c3cccc(N)c3)ccc2c1 [Example 35] | 3970 nM
2 | – | 6-(aminoiminomethyl)-N-phenyl-4-(tetrahydro-3-furanyl)-2-naphthalenecarboxamide [Example 180] | 97 nM
3 | – | COC(=O)NCc1cccc2ccc(C(=N)N)cc12 [Example 155, methyl [7-(aminoiminomethyl)-1-naphthalenyl]methyl carbamate] | 2330 nM
4 | – | 6-(aminoiminomethyl)-N-(1H-indol-5-yl)-2-naphthalenecarboxamide [Example 205] | 337 nM
5 | 36000 nM | COc1cc2ccc(C(=N)N)cc2cc1OC [Example 3, 6,7-dimethoxy-2-naphthalenecarboximidamide] | –
6 | 2400 nM | N=C(N)c1ccc2cc(C#CCc3ccccc3)ccc2c1 [Example 33, 6-(3-Phenyl-1-propynyl)-2-naphthalenecarboximidamide] | –
7 | – | CC(C)(C)OC(=O)NCc1ccc(C#Cc2ccc3cc(C(=N)N)ccc3c2)cc1 [Example 123, 1,1-dimethylethyl [[4-[[6-(aminoiminomethyl)-2-naphathalenyl]ethynyl]phenyl]methyl]carbamate] | 1240 nM
8 | – | Ethyl [6-(aminoiminomethyl)-2-naphthalenyl]carbamate [Example 78] | 3570 nM
9 | – | N=C(N)c1ccc2cc(C(=O)Nc3ncc(Br)s3)ccc2c1 [Example 197] | 2030 nM
10 | 2700 nM | COc1ccc2ccc(C(=N)N)cc2c1I [Example 54, 7-Methoxy-8-iodo-2-naphthalenecarboximidamide] | –
11 | – | [H]/N=C(/N)c1ccc2cc(C=Cc3cccc(CO)c3)ccc2c1 [Example 96, (E)-6-[2-[(3-hydroxymethyl)phenyl]ethenyl]-2-naphthalenecarboximidamide] | 860 nM
12 | – | 6-(aminoiminomethyl)-N-(4-nitrophenyl)-2-naphthalenecarboxamide [Example 224] | 1770 nM
13 | – | 6-(aminoiminomethyl)-N-(3, 4, 5-trimethoxyphenyl)-2-naphthalenecarboxamide [Example 195] | 1300 nM
14 | – | [H]/N=C(/N)c1ccc2ccc(OC)c(C=Cc3ccccc3)c2c1 [Example 27, (E)-{7-Methoxy-8-[2-(Phenyl)ethenyl]}-2-naphthaleneimidamide] | 930 nM
15 | – | 6-(aminoiminomethyl)-N-(1, 2, 3, 4-tetrahydro-2, 4-dioxo5-pyrimidinyl)-2-naphthalenecarboxamide [Example 189] | 1300 nM
16 | 4700 nM | N=C(N)c1ccc2cc(-c3ccccc3CO)ccc2c1 [Example 51, 6-[2-(Hydroxymethyl)phenyl]-2-naphthalenecarboximidamide] | –
17 | 6500 nM | N=C(N)c1ccc2cc(OCCc3ccc(N)cc3)ccc2c1 [Example 89, 6-[2-(4-Aminophenyl)ethoxy]-2-naphthalenecarboximidamide] | –
18 | 2500 nM | N=C(N)c1ccc2ccc(OCCO)c(I)c2c1 [Example 29, 7-(2-Hydroxyethoxy)-8-iodo-2-naphthalenecarboximidamide] | –
19 | – | 6-(aminoiminomethyl)-4-(3-furanyl)-N-(3-pyridinyl)-2-naphthalenecarboxamide [Example 117] | 278 nM
20 | – | 1-[(7-Aminoiminomethyl-2-methoxy-1-naphthalenyl)oxy]-3-phenylpropane [Example 23] | 4000 nM
21 | 6600 nM | COc1ccc2ccc(C(=N)N)cc2c1OC [Example 1, 7,8-Dimethoxy-2-naphthalenecarboximidamide] | –

Row | IC50 [2] | Compound | IC50 [1]
22 | – | 5-[[6-(aminoiminomethyl)-2-naphthalenyl]oxy]pentanoic acid [Example 129] | 4840 nM
23 | – | N-[3-(methyl)phenyl]-6-aminoiminomethyl-2-naphthalenecarboxamide [Example 48] | 1300 nM
24 | – | 6-(aminoiminomethyl)-4-[5-(ethylsulfonyl)-3-furanyl]-N-phenyl-2-naphthalenecarboxamide [Example 227] | 15 nM
25 | 3500 nM | N=C(N)c1ccc2cc(C#Cc3ccccc3)ccc2c1 [Example 34, 6-(Phenylethynyl)-2-naphthalenecarboximidamide] | –
26 | – | 6-(aminoiminomethyl)-N-(2-methyl-6-quinolinyl)-2-naphthalenecarboxamide [Example 217] | 670 nM
27 | – | N-phenyl-6-aminoiminomethyl-2-naphthalenecarboxamide [Example 55] | 900 nM
28 | 2640 nM | N=C(N)c1ccc2cc(NC(=O)C3CCC(CN)CC3)ccc2c1 (stereo not drawn) [Example 139, N-[6-(aminoiminomethyl)-2-naphthalenyl]-4-4-(aminomethyl)cyclohexanescarboxamide] | –
29 | 14900 nM | N=C(NO)c1ccc2cccc(Nc3ncccn3)c2c1 [Example 177, N-hydroxy-8-(2-pyrimidinylamino)-2-naphthalenecarboximidamide] | –
30 | – | 6-(aminoiminomethyl)-N-(4-methyl-2-thiazolyl)-2-naphthalenecarboxamide [Example 199] | 2300 nM
31 | – | 6-(aminoiminomethyl)-4-(3-furanyl)-N-(2-pyridinyl)-2-naphthalenecarboxamide [Example 146] | 372 nM
32 | – | 6-(aminoiminomethyl)-N-phenyl-4-(2-pyrimidinylamino)-2-naphthalenecarboxamide [Example 166] | 2 nM
33 | – | 6-(aminoiminomethyl)-N-(3-phenoxyphenyl)-2-naphthalenecarboxamide [Example 221] | 520 nM
34 | – | 6-[2-(2-Thiomethoxoxyethyl)phenyl]naphthalene-2-carboximidamide [Example 58] | 2530 nM
35 | – | N=C(N)c1ccc2cc(C(=O)Nc3cccc(OCc4ccccc4)c3)ccc2c1 [Example 222] | 346 nM
36 | 160 nM | COc1ccc2ccc(C(=N)N)cc2c1Nc1cnccn1 [Example 150, 7-methoxy-8-(pyrazinylamino)-2-naphthalenecarboximidamide] | –
37 | – | 6-(aminoiminomethyl)-N-(2-thiazolyl)-2-naphthalenecarboxamide [Example 186] | 2980 nM
38 | 2940 nM | [H]/N=C(/N)c1ccc2cc(C=Cc3cccs3)ccc2c1 [Example 45, (E)-6-[2-(2-Thienyl)ethenyl]-2-naphthalenecarboximidamide] | –
39 | – | CN(C(=O)Nc1ccc2cc(C(=N)N)ccc2c1)c1ccccc1 [Example 72] | 4300 nM
40 | – | 6-(aminoiminomethyl)-N-(5-pyrimidinyl)-2-naphthalenecarboxamide [Example 208] | 960 nM
41 | – | N-(6-aminoiminomethyl-2-naphthalenyl)-N′-phenylurea [Example 40] | 310 nM
42 | – | (E)-4-[2-(6-Aminoiminomethyl-2-naphthalenyl)ethenyl]benzoic acid [Example 84] | 10000 nM

Row | IC50 [2] | Compound | IC50 [1]
43 | – | 6-(aminoiminomethyl)-4-[5-(propylsulfonyl)-3-furanyl]-N-phenyl-2-naphthalenecarboxamide [Example 228] | 25 nM
44 | 870 nM | N=C(N)c1ccc2cc(C#Cc3ccc(CO)cc3)ccc2c1 [Example 126, 6-[[4-(hydroxymethyl)phenyl]ethynyl]-2-naphthalenecarboximidamide] | –
45 | 2960 nM | COc1ccc2ccc(C(=N)N)cc2c1-c1cn[nH]c1 [Example 53, 7-Methoxy-8-(1H-pyrazol-4-yl)-2-naphthalenecarboximidamide] | –
46 | – | [H]/N=C(/N)c1ccc2cc(C=Cc3ccc(CN(C)C)cc3)ccc2c1 [Example 107, (E)-6-[2-[[4-(dimethylamino)methyl]phenyl]ethenyl]-2-naphthalenecarboximidamide] | 2340 nM
47 | – | 7-Methoxy-8-(1-acetyl-1H-pyrazolyl)-2-naphthalenecarboximidamide [Example 86] | 3600 nM
48 | 8920 nM | NC(=NO)c1ccc2cc(C(=O)Nc3ccccc3)cc(Nc3ncccn3)c2c1 [Example 181] | –
49 | – | N-[6-(aminoiminomethyl)-2-naphthalenyl)benzamide [Example 136] | 1670 nM
50 | – | 6-(aminoiminomethyl)-4-(3-furanyl)-N-[4-(trifluoromethyl)phenyl]-2-naphthalenecarboxamide [Example 114] | 344 nM
51 | – | N=C(N)c1ccc2cc(C#CCCc3ccccc3)ccc2c1 [Example 28, 6-(4-Phenylbutynyl)-2-naphthalenecarboximidamide] | 2100 nM
52 | 3210 nM | [H]/N=C(/N)c1ccc2cc(C=Cc3ccco3)ccc2c1 [Example 81, (E)-6-[2-(2-Furanyl)ethenyl]-2-naphthalenecarboximidamide] | –
53 | – | N=C(N)c1ccc2cc(CCc3ccccc3)ccc2c1 [Example 42, 6-[2-(Phenyl)ethyl]-2-naphthalenecarboximidamide] | 2080 nM
54 | – | 1-[(7-Aminoiminomethyl-2-methoxy-1-naphthalenyl)oxy]-3-hydroxypropane [Example 10] | 3200 nM
55 | 570 nM | COc1ccc(Nc2c(OC)ccc3ccc(C(=N)N)cc23)cc1 [Example 103, 7-methoxy-8-[(4-methoxyphenyl)amino]-2-naphthalenecarboximidamide] | –
56 | 2400 nM | CC(=O)CCc1ccc2cc(C(=N)N)ccc2c1 [Example 46, 6-(3-Oxobutyl)-2-naphthalenecarboximidamide] | –
57 | – | COC(=O)c1ccc(COc2ccc3cc(C(=N)N)ccc3c2)cc1 [Example 213] | 4580 nM
58 | – | N-[7-(aminoiminomethyl)-1-naphthalenyl]-2-(phenylmethoxy)acetamide [Example 18] | 420 nM
59 | > 30000 nM | COC(=O)c1ccc(COc2ccc3ccc(C(N)=NO)cc3c2)cc1 [Example 182] | –
60 | – | 6-(aminoiminomethyl)-N-(3-methyl-2-pyridinyl)-2-naphthalenecarboxamide [Example 196] | 620 nM
61 | – | 6-(aminoiminomethyl)-N-(4-methylphenyl)-2-naphthalenecarboxamide [Example 132] | 960 nM
62 | – | ethyl [7-(aminoiminomethyl)-1-naphthalenyl)carbamate [Example 158] | 90 nM
63 | 3600 nM | N=C(N)c1ccc2ccc(OCCO)cc2c1 [Example 30, 7-(2-Hydroxyethoxy)-2-naphthalenecarboximidamide] | –
